Test results taken from PMC11191095, “QSAR Reveals Decreased Lipophilicity of Polar Residues Determines the Selectivity of Antimicrobial Peptide Activity” (ACS Omega, 2024).
Where a SMILES comes first, the peptide text is derived from it.

Legend:
[1] = test system: S. aureus (MSSA) ATCC 9144; test: microbe, parasite or virus in culture; type: cell-based, Staphylococcus aureus
How it was run: (§1)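 Peptides 128→2 μg/mL, 2-fold series; inoculum ~5 × 10^5 CFU/mL from overnight culture (OD600 0.01, mixed 1:1). MHB non-cation-adjusted for bacteria, RPMI 1640 + 2% glucose for fungi. 37 °C, 20 h, OD600. MIC50/MIC90 at 50%/90% inhibition; n ≥ 3.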

HaCat cell line = test: In vitro HaCat cytotoxicity (MTT); type: cell-based, human; details: 21 h exposure, OD570, relative to untreated control
How it was run: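 HaCat keratinocytes were first screened with peptide at 256 μg/mL for 21 h at 37 °C, and a dose-response was run only when cytotoxicity reached p < 0.0001. Viability was read by MTT (3 h, OD570) relative to untreated control, and LC50 was taken from the dose-response curves.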

[2] = RP-HPLC ElutionTime as indicator of hydrophobicity; type: physicochemical; details: indicator of overall hydrophobicity; semipreparative RP-HPLC, Waters SymmetryPrep C8, water/ACN gradient with 0.1% TFA, 8 mL/min, 25 °C, 254 nm
Method: Crude peptides, made up to 10 mg/mL in 0.1% TFA (v/v) in ddH2O, were subjected to preparative RP-HPLC purification on an Agilent 1100 system, with elution in gradient. A gradient program at a flow rate of 8 mL/min and column temperature of 25 °C was used to achieve elution with solvent A (0.1% trifluoroacetic acid (TFA) in water (v/v)) and solvent B (0.1% TFA in 100% acetonitrile (ACN) (v/v)). The elution program was as follows: (1) At 0–73 min, 100% solvent A to 0% solvent B; (2) at 73–77 min, 40% solvent A to 60% solvent B; (3) at 77–93 min, 10% solvent A to 90% solvent B; (4) at 93–105 min, 100% solvent A to 0% solvent B. Data collected were the retention time of the major fraction for each peptide in minutes as RP-HPLC ElutionTime (ElutionTime). Absorbance was detected at 254 nm, and fractions were collected manually. The fractions collected were spun in a speed-vac to remove ACN and the contents lyophilized. After freeze-drying for 24 h the peptides were dissolved in 10% (v/v) acetic acid before being lyophilized for a second time and then stored at −20 °C.
Molecular descriptors used in the QSAR analysis included: charge, sequence length, overall lipophilicity (L), lipophilicity contributed by the polar or nonpolar residues (LP and LN), summation of the side chain surface areas of the total peptide, polar or nonpolar residues (SCSA, SCSAP, and SCSAN), the molecular weight of the entire peptide, polar or nonpolar residues (Mw, MwP, and MwN), count of small lipophilic residues (CSL) or aromatic residues (CAR), the total number of hydrogen bond donor and acceptor centers (HBtot, HBdon, and HBacc), the total number of rotatable bonds (#RotBonds) and various amphipathicity descriptors (LP/L, LP/LN, L/LN, Q/L, Q/LN, SCSAP/SCSAN, MwP/MwN, Q/CSL, and Q/CAR) (Suppl. Table S1). Experimentally determined characteristics included ElutionTime as an indicator of overall peptide hydrophobicity and the CD structure of each peptide determined in POPG/POPE lipids representing Gram-negative membranes, POPG lipids for Gram-positive membranes, and SDS micelles for fungal membranes. AMPs with an α-helical structure were labeled 4, β-sheets were labeled 3, β-turns and mixed conformations were labeled 2, and disordered structures were labeled 1.

P. aeruginosa PAO1 = test: microbe, parasite or virus in culture; type: cell-based, Pseudomonas aeruginosa; details: P. aeruginosa PAO1 (S)
How it was run: as §1

[3] = S. aureus (MSSA) ATCC 9144 (S), MHB, 37 °C, 20 h, OD600, min. three biological repeats
[4] = MHB, 37 °C, 20 h, OD600, min. three biological repeats
[5] = S. aureus (MSSA) ATCC 9144 (S), shown in µM

| Compound | Modal MIC ([1]; ATCC 9144, 20 h) [µM] | Modal MIC [1, 3] [mg/L] | % HaCat cell death at initial screening (256μg/mL) ± SD (HaCat cell line) [%] | ElutionTime (RP-HPLC retention time of major fraction) [2] | Modal MIC (P. aeruginosa PAO1; [4]) [mg/L] | Modal MIC (P. aeruginosa PAO1; shown in µM) [µM] | Modal MIC [1, 5] [µM] | % HaCat cell death at initial screening (256μg/mL) ± SD (HaCat cell line; listed as Os(11–22)a) [%] |
| --- | --- | --- | --- | --- | --- | --- | --- | --- |
| CC(C)[C@H](NC(=O)CNC(=O)[C@H](CCCNC(=N)N)NC(=O)[C@H](CCCNC(=N)N)NC(=O)[C@H](CS)NC(=O)[C@@H](NC(=O)[C@H](CS)NC(=O)[C@@H](N)CCCNC(=N)N)C(C)C)C(=O)N[C@@H](CS)C(=O)N[C@@H](CCCNC(=N)N)C(=O)N[C@@H](CS)C(=O)N[C@H](C(=O)N[C@@H](CS)C(=O)N[C@@H](CCCNC(=N)N)C(=O)N[C@@H](CCCNC(=N)N)C(N)=O)C(C)C [BTD15a] (H-RCVCRRGVCRCVCRR-NH2; N-terminus assumed) | 4.4 | 8 | 20 | 20 min | – | – | – | – |
| CC[C@H](C)[C@H](NC(=O)[C@H](CCCCN)NC(=O)[C@H](CC(C)C)NC(=O)[C@H](C)NC(=O)[C@H](C)NC(=O)[C@H](CCCCN)NC(=O)[C@H](CC(C)C)NC(=O)[C@H](C)NC(=O)[C@@H](N)CCCCN)C(=O)NCC(N)=O [CPF-P3-10a] (H-KALKAALKIG-NH2) | – | > 128 | – | – | > 128 | > 122 | > 122 | – |
| CC[C@H](C)[C@H](NC(=O)[C@H](CCCCN)NC(=O)[C@H](CC(C)C)NC(=O)[C@H](C)NC(=O)[C@H](C)NC(=O)[C@H](CCCCN)NC(=O)[C@H](CC(C)C)NC(=O)[C@H](C)NC(=O)[C@@H](N)CCCCN)C(=O)NCC(=O)N[C@@H](C)C(=O)N[C@@H](CC(N)=O)C(N)=O [CPF-P3-12a] (H-KALKAALKIGAN-NH2) | – | > 128 | – | – | > 128 | > 103.8 | > 103.8 | – |
| CC[C@H](C)[C@H](NC(=O)CNC(=O)[C@@H](N)CCCNC(=N)N)C(=O)N[C@@H](CCCNC(=N)N)C(=O)NCC(=O)N[C@@H](Cc1ccc(O)cc1)C(=O)N[C@@H](CCCCN)C(=O)NCC(=O)NCC(=O)N[C@@H](Cc1ccc(O)cc1)C(=O)N[C@@H](CS)C(=O)N[C@H](C(=O)NCC(=O)N[C@@H](CCCNC(=N)N)C(=O)N[C@@H](Cc1ccccc1)C(=O)N[C@@H](CCCCN)C(=O)N[C@@H](CCC(N)=O)C(=O)N[C@H](C(=O)N[C@@H](CS)C(=O)N[C@@H](CCCCN)C(=O)N[C@@H](CS)C(=O)N[C@@H](Cc1ccc(O)cc1)C(=O)O)[C@@H](C)O)[C@@H](C)O [OmDefB] (H-RGIRGYKGGYCTGRFKQTCKCY-OH; N-terminus and C-terminus assumed) | – | > 128 | – | 25 min | > 128 | > 49.9 | > 49.9 | – |
| CC[C@H](C)[C@H](NC(=O)[C@@H](N)Cc1c[nH]c2ccccc12)C(=O)N[C@@H](CCCCN)C(=O)N[C@@H](CO)C(=O)N[C@H](C(=O)N[C@@H](C)C(=O)N[C@@H](CCCCN)C(=O)N[C@@H](CCCCN)C(N)=O)[C@@H](C)O [Opis8a] (H-WIKSTAKK-NH2) | – | > 128 | – | – | > 128 | > 133.2 | > 133.2 | – |
| CC[C@H](C)[C@H](N)C(=O)N[C@@H](CCCNC(=N)N)C(=O)NCC(=O)N[C@@H](Cc1ccc(O)cc1)C(=O)N[C@@H](CCCCN)C(=O)NCC(=O)NCC(=O)N[C@@H](Cc1ccc(O)cc1)C(=O)N[C@@H](CS)C(=O)N[C@@H](CCCCN)C(N)=O [Os(3-12)a] (H-IRGYKGGYCK-NH2) | – | > 128 | – | – | > 128 | > 112 | > 112 | – |
| C[C@H](NC(=O)CNC(=O)[C@H](CCCCN)NC(=O)[C@@H](N)CS)C(=O)N[C@@H](Cc1ccccc1)C(=O)N[C@@H](CCCCN)C(=O)N[C@@H](CCC(N)=O)C(=O)N[C@H](C(=O)N[C@@H](CS)C(=O)N[C@@H](CCCCN)C(=O)N[C@@H](CS)C(=O)N[C@@H](Cc1ccc(O)cc1)C(N)=O)[C@@H](C)O [Os(11-22)a] (H-CKGAFKQTCKCY-NH2; N-terminus assumed) | – | > 128 | 59.5 ±13.9 | 21,3 min | > 128 | > 91.7 | > 91.7 | 59.5 |
| CC[C@H](C)[C@H](NC(=O)CNC(=O)[C@@H](N)CCCCN)C(=O)N[C@@H](CCCNC(=N)N)C(=O)NCC(=O)N[C@@H](Cc1ccc(O)cc1)C(=O)N[C@@H](CCCCN)C(=O)NCC(=O)NCC(=O)N[C@@H](Cc1ccc(O)cc1)C(=O)N[C@@H](CS)C(=O)N[C@@H](CCCCN)C(=O)NCC(=O)N[C@@H](C)C(=O)N[C@@H](Cc1ccccc1)C(=O)N[C@@H](CCCCN)C(=O)N[C@@H](CCC(N)=O)C(=O)N[C@H](C(=O)N[C@@H](CS)C(=O)N[C@@H](CCCCN)C(=O)N[C@@H](CS)C(=O)N[C@@H](Cc1ccc(O)cc1)C(=O)O)[C@@H](C)O [Os] (H-KGIRGYKGGYCKGAFKQTCKCY-OH; N-terminus and C-terminus assumed) | – | > 128 | – | 24,7 min | > 128 | > 51.7 | > 51.7 | – |
| CC[C@H](C)[C@H](NC(=O)CNC(=O)[C@@H](N)CCCCN)C(=O)N[C@@H](CCCNC(=N)N)C(=O)NCC(=O)N[C@@H](Cc1ccc(O)cc1)C(=O)N[C@@H](CCCCN)C(=O)NCC(=O)NCC(=O)N[C@@H](Cc1ccc(O)cc1)C(=O)N[C@@H](CS)C(=O)N[C@@H](CCCCN)C(=O)NCC(=O)N[C@@H](C)C(=O)N[C@@H](Cc1ccccc1)C(=O)N[C@@H](CCCCN)C(=O)N[C@@H](CCC(N)=O)C(=O)N[C@H](C(=O)N[C@@H](CS)C(=O)N[C@@H](CCCCN)C(=O)N[C@@H](CS)C(=O)N[C@@H](Cc1ccc(O)cc1)C(N)=O)[C@@H](C)O [Osa] (H-KGIRGYKGGYCKGAFKQTCKCY-NH2; N-terminus assumed) | – | > 128 | – | 24,5 min | > 128 | > 51.7 | > 51.7 | – |
| CC(C)C[C@H](NC(=O)[C@H](CCCCN)NC(=O)[C@H](CO)NC(=O)[C@H](CCCCN)NC(=O)[C@@H](N)Cc1c[nH]c2ccccc12)C(=O)N[C@@H](C)C(=O)N[C@@H](CCCCN)C(=O)N[C@@H](CCCCN)C(N)=O [PS-PB-8a] (H-WKSKLAKK-NH2) | – | > 128 | – | – | > 128 | > 127.2 | > 127.2 | – |
| CC(C)C[C@H](NC(=O)[C@H](CCCCN)NC(=O)[C@H](CO)NC(=O)[C@H](CCCCN)NC(=O)[C@H](Cc1c[nH]c2ccccc12)NC(=O)[C@H](C)NC(=O)[C@H](CCCCN)NC(=O)[C@@H](N)CCCCN)C(=O)N[C@@H](C)C(=O)N[C@@H](CCCCN)C(=O)N[C@@H](CCCCN)C(=O)N[C@@H](CC(C)C)C(=O)N[C@@H](CCCNC(=N)N)C(=O)N[C@@H](C)C(=O)N[C@@H](CCCCN)C(=O)NCC(=O)N[C@@H](CCCCN)C(N)=O [PS-PB-14a] (H-KKAWKSKLAKKLRAKGK-NH2) | – | > 128 | – | – | > 128 | > 63.8 | > 63.8 | – |
| KCLTLRSLKKTLKFCASGRT-NH2 [X1-20a, novel amidated frog AMP derivative, Xenopus laevis] | – | 16 | – | 31,7 min | > 128 | > 55 | 6.9 | – |
